Assay results: patent US20070254882A1, “Sulfamide Derivatives and Pharmaceutical Composition for Upregulation of Lipid Metabolism Comprising Same” (CRYSTAL GENOMICS, INC., priority 2004, published 2007)

Target: T1, human PPAR α (Homo sapiens, UniProt Q07869)
T1 construct: expressed in transfected cells; host or cells: HepG2 (ATCC HB-8065) or 293T cells (ATCC CRL-1573)
T1 sequence (Q07869 239-466 limits assumed): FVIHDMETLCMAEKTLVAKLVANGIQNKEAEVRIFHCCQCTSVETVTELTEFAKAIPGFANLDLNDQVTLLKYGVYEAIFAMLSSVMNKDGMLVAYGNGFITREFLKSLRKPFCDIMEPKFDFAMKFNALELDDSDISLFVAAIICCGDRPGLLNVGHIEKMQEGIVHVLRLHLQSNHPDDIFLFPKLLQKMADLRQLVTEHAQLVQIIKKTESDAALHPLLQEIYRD
Test: Exogeneous PPAR α agonist assay (GAL4 DNA binding domain/PPAR α ligand binding domain, luciferase) in 293T cells
Type: cell-based
Design: scale not given here
Settings: 25 μM compound, 48 hours, luciferase activity increase relative to the control
Description: Step 1) Exogeneous PPAR α Agonist Assay
Cross-activation assay of the compounds of Examples 1 to 134 against human PPAR α was carried out using a DNA construct of PPAR α including its ligand binding domain and GAL4 DNA binding domain (Sher et al., Biochemistry 32, 5598-5604, 1993) to analyze whether any of the compounds binds to the ligand binding domain of PPAR α expressed by the construct to affect the PPAR α activity. When the GAL4 DNA binding domainm which is fused with PPAR α ligand binding domain, binds to UAS (upstream activation sequence) of firefly-luciferase, the luciferase is expressed. Therefore, the effect of each of the compounds of Examples on PPAR α activation can be evaluated by analyzing the activation of luciferase.
Specifically, 2×10^4 of HepG2 (ATCC HB-8065) or 293T cells (ATCC CRL-1573) were aliquotted into each well of a 96-well plate and cultured for overnight at 37° C. in a CO2 incubator (culture condition: DMEM, 10% FBS and 1% antibiotics).
The transformation of PPAR α DNA was traced as follows. First, a mixture of the following ingredients in amounts per well; Solution A (Promega) containing 50 ng of full length human PPAR α DNA, 50 ng of firefly-luciferase construct, 5 ng of Renilla-luciferase construct, 1.0 μl of PLUS™ reagent, and 8.3 μl of a serum-free medium containing no antibiotics; was prepared and kept at room temperature for 15 min. Solution B, which contained 0.5 μl of Lipofectamine™ reagent and 9.5 μl of serum-free medium without antibiotics per well, and Solution C, which contained 50 μl of serum-free medium per well), were prepared. Solutions A, B and C were mixed together to prepare lipofectamin-DNA complex, and the mixture was kept at room temperature for 15 min. Single layer of cells on each well of a 96-well plate were washed with serum-free DMEM, 70 μl of lipofectamine-DNA complex prepared above was added thereto, the plate was incubated at 37° C. in a 5% CO2 incubator for 3 hours to transform the cells, and […] of a diluted solution of each of the compounds of Examples 1 to 134 per well was added to each well to a final concentration 25 μM, and incubated at 37° C. in a CO2 incubator for 48 hours. Then, the medium was removed, 50 μl of passive lysis buffer (Promega) was added thereto, and the plate was shook at room temperature for 20 min to lysis cells. 40 μl of Luciferase Assay reagent of Dual Luciferase Kit […] per 20 μl of cell lysis buffer was added to the plate, followed by reacting at 20° C. for 8 seconds, and 40 μl of Stop & Glo reagent (Promega) as a stop solution was added thereto to quench the reaction. The luminescence intensities of F-luciferase and R-luciferase were measured with MicroLumat Plus (Berthord Technology).

Row | Compound | Activity at 25 μM Step 1 293T cell
1 | Cc1ccc(-c2nc(CCOc3ccc(CN(CC(=O)O)S(=O)(=O)N4CCc5ccccc54)cc3)c(C)o2)cc1 [Example 117, [N-(indolinyl)sulfonyl-N-[4-[2-[2-(4-methylphenyl)-5-methyloxazol-4-yl]ethoxy]benzyl]amino]acetic acid] | 3
2 | Cc1oc(-c2ccccc2)nc1COc1cccc(CN(CC(=O)O)S(=O)(=O)N(C)C)c1 [Example 3, [N—[(N,N-dimethylamino)sulfonyl]-N-[3-[(2-phenyl-5-methyloxazol-4-yl)methoxy]benzyl]amino]acetic acid] | 2
3 | Cc1ccc(-c2nc(COc3ccc(CN(CC(=O)O)S(=O)(=O)N4CCCc5ccccc54)cc3)c(C)o2)cc1 [Example 58, [N-(1,2,3,4-tetraquinolinyl)sulfonyl-N-[4-[[2-(4-methylphenyl)-5-methyloxazol-4-yl]methoxy]benzyl]amino]acetic acid] | 4
4 | Cc1oc(-c2ccc(C(F)(F)F)cc2)nc1COc1ccc(CN(CC(=O)O)S(=O)(=O)N2CCCc3ccccc32)cc1 [Example 59, [N-(1,2,3,4-tetrahydroquinolinyl)sulfonyl-N-[4-[[2-(4-trifluoromethylphenyl)-5-methyloxazol-4-yl]methoxy]benzyl]amino]acetic acid] | 3
5 | Cc1oc(-c2ccccc2)nc1COc1ccc(CN(CC(=O)O)S(=O)(=O)N(C)c2ccc(Cl)cc2)cc1 [Example 49, [N—[[N-methyl-N-(4-chlorophenyl)]amino]sulfonyl-N-[4-[(2-phenyl-5-methyloxazol-4-yl)methoxy]benzyl]amino]acetic acid] | 3
6 | Cc1oc(-c2ccccc2)nc1CCOc1ccc(CN(CC(=O)O)S(=O)(=O)N2CCc3ccccc32)cc1 [Example 116] | 2
7 | Cc1ccc(-c2nc(CCOc3ccc(CN(CC(=O)O)S(=O)(=O)N(C)C)cc3)c(C)o2)cc1 [Example 99, [N—(N,N-dimethylamino)sulfonyl-N-[4-[2-[2-(4-methylphenyl)-5-methyloxazol-4-yl]ethoxy]benzyl]amino]acetic acid] | 2
8 | Cc1ccc(-c2nc(CCOc3ccc(CN(CC(=O)O)S(=O)(=O)N(C)c4ccc(Cl)cc4)cc3)c(C)o2)cc1 [Example 110, [N—[[N-methyl-N-(4-chlorophenyl)]amino]sulfonyl-N-[4-[2-[2-(4-methylphenyl)-5-methyloxazol-4-yl]ethoxy]benzyl]amino]acetic acid] | 2
9 | Cc1oc(-c2ccc(C(F)(F)F)cc2)nc1CCOc1ccc(CN(CC(=O)O)S(=O)(=O)N2CCc3ccccc32)cc1 [Example 118, [N-(indolinyl)sulfonyl-N-[4-[2-[2-(4-trifluoromethylphenyl)-5-methyloxazol-4-yl]ethoxy]benzyl]amino]acetic acid] | 2
10 | Cc1oc(-c2cccs2)nc1COc1cccc(CN(CC(=O)O)S(=O)(=O)N(C)C)c1 [Example 12, [N—(N,N-dimethylamino)sulfonyl-N-[3-[[2-(thiophen-2-yl)-5-methyloxazol-4-yl]methoxy]benzyl]amino]acetic acid] | 2
11 | Cc1oc(-c2cccs2)nc1CCOc1ccc(CN(CC(=O)O)S(=O)(=O)N2CCc3ccccc32)cc1 [Example 119, [N-(indolinyl)sulfonyl-N-[4-[2-[2-(thiophen-2-yl)-5-methyloxazol-4-yl]ethoxy]benzyl]amino]acetic acid] | 2
12 | Cc1oc(-c2ccc(C(F)(F)F)cc2)nc1CCOc1ccc(CN(CC(=O)O)S(=O)(=O)N(C)c2ccc(Cl)cc2)cc1 [Example 114, [N—[[N-methyl-N-(4-chlorophenyl)]amino]sulfonyl-N-[4-[2-[2-(4-trifluoromethylphenyl)-5-methyloxazol-4-yl]ethoxy]benzyl]amino]acetic acid] | 2
13 | Cc1ccc(-c2nc(COc3ccc(CN(CC(=O)O)S(=O)(=O)N(C)c4ccccc4)cc3)c(C)o2)cc1 [Example 46, [N—[(N-methyl-N-phenyl)amino]sulfonyl-N-[4-[[2-(4-methylphenyl)-5-methyloxazol-4-yl]methoxy]benzyl]amino]acetic acid] | 2
14 | Cc1ccc(-c2nc(COc3ccc(CN(CC(=O)O)S(=O)(=O)N4CCc5ccccc54)cc3)c(C)o2)cc1 [Example 54, [N-(indolinyl)sulfonyl-N-[4-[[2-(4-methylphenyl)-5-methyloxazol-4-yl]methoxy]benzyl]amino]acetic acid] | 2
15 | Cc1ccc(-c2nc(CCOc3ccc(CN(CC(=O)O)S(=O)(=O)NC(C)(C)C)cc3)c(C)o2)cc1 [Example 100, [N—(N-t-butylamino)sulfonyl-N-[4-[2-[2-(4-methylphenyl)-5-methyloxazol-4-yl]ethoxy]benzyl]amino]acetic acid] | 2
16 | Cc1oc(-c2ccc(C(F)(F)F)cc2)nc1CCOc1ccc(CN(CC(=O)O)S(=O)(=O)N(C)C)cc1 [Example 103, [N—(N,N-dimethylamino)sulfonyl-N-[4-[2-[2-(4-trifluoromethylphenyl)-5-methyloxazol-4-yl]ethoxy]benzyl]amino]acetic acid] | 2
17 | Cc1oc(-c2cccs2)nc1CCOc1ccc(CN(CC(=O)O)S(=O)(=O)N(C)c2ccccc2)cc1 [Example 108] | 2
18 | Cc1ccc(-c2nc(COc3cccc(CN(CC(=O)O)S(=O)(=O)N(C)C)c3)c(C)o2)cc1 [Example 4, [N—[(N,N-dimethylamino)sulfonyl]-N-[3-[[2-(4-methylphenyl)-5-methyloxazol-4-yl]methoxy]benzyl]amino]acetic acid] | 3
19 | Cc1oc(-c2ccc(C(F)(F)F)cc2)nc1CCOc1cccc(CN(CC(=O)O)S(=O)(=O)NC(C)(C)C)c1 [Example 66, [N—(N-t-butylamino)sulfonyl-N-[3-[2-[2-(4-trifluoromethylphenyl)-5-methyloxazol-4-yl]ethoxy]benzyl]amino]acetic acid] | 1
20 | Cc1ccc(-c2nc(COc3cccc(CN(CC(=O)O)S(=O)(=O)N(C)c4ccc(Cl)cc4)c3)c(C)o2)cc1 [Example 19, [N—[[N-methyl-N-(4-chlorophenyl)]amino]sulfonyl-N-[3-[[2-(4-methylphenyl)-5-methyloxazol-4-yl]methoxy]benzyl]amino]acetic acid] | 2
21 | Cc1ccc(-c2nc(CCOc3ccc(CN(CC(=O)O)S(=O)(=O)N4CCCc5ccccc54)cc3)c(C)o2)cc1 [Example 121, [N-(1,2,3,4-tetrahydroquinolinyl)sulfonyl-N-[4-[2-[2-(4-methylphenyl)-5-methyloxazol-4-yl]ethoxy]benzyl]amino]acetic acid] | 2
22 | Cc1ccc(-c2nc(COc3cccc(CN(CC(=O)O)S(=O)(=O)N4CCCc5ccccc54)c3)c(C)o2)cc1 [Example 35, [N-(1,2,3,4-tetrahydroquinolinyl)sulfonyl-N-[3-[[2-(4-methylphenyl)-5-methyloxazol-4-yl]methoxy]benzyl]amino]acetic acid] | 2
23 | Cc1oc(-c2ccccc2)nc1CCOc1ccc(CN(CC(=O)O)S(=O)(=O)N2CCCc3ccccc32)cc1 [Example 120, [N-(1,2,3,4-tetrahydroquinolinyl)sulfonyl-N-[4-[2-(2-phenyl-5-methyloxazol-4-yl)ethoxy]benzyl]amino]acetic acid] | 2
